Test results published in PubChem BioAssay (NCI).
“And” between values parts separate entries of the source, which are not always exact repeats. Equal values may be shown once.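 Protocol summary: plate cells (96-well), add compound at 5 concentrations, incubate 48 h, interpolate endpoints linearly. GI50 marks 50% less growth. TGI: concentration producing complete growth inhibition.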

Columns and labels:
Experiment in all cases: NCI tumour cell line growth inhibition, 48 h
MDA-MB-231 breast = system: MDA-MB-231 breast
NCI-H522 lung = system: NCI-H522 lung
OVCAR-5 ovarian = system: OVCAR-5 ovarian
T-47D breast = system: T-47D breast
SN12C renal = system: SN12C renal
SK-OV-3 ovarian = system: SK-OV-3 ovarian
IGROV1 ovarian = system: IGROV1 ovarian
UACC-62 melanoma = system: UACC-62 melanoma
LOX IMVI melanoma = system: LOX IMVI melanoma
NCI/ADR-RES ovarian = system: NCI/ADR-RES ovarian

SMILES	GI50 (MDA-MB-231 breast)	TGI (MDA-MB-231 breast)	GI50 (NCI-H522 lung)	TGI (NCI-H522 lung)	GI50 (OVCAR-5 ovarian)	TGI (OVCAR-5 ovarian)	GI50 (T-47D breast)	TGI (T-47D breast)	GI50 (SN12C renal)	TGI (SN12C renal)	GI50 (SK-OV-3 ovarian)	TGI (SK-OV-3 ovarian)	GI50 (IGROV1 ovarian)	TGI (IGROV1 ovarian)	GI50 (UACC-62 melanoma)	TGI (UACC-62 melanoma)	GI50 (LOX IMVI melanoma)	TGI (LOX IMVI melanoma)	GI50 (NCI/ADR-RES ovarian)	TGI (NCI/ADR-RES ovarian)
O=c1[nH]c(=O)c2cc3cc(C4CC(O)C(CO)O4)ccc3cc2[nH]1 (configuration not stated)	65.7 µM	> 100 µM	17.5 µM	87.8 µM	> 100 µM	> 100 µM	> 100 µM	> 100 µM	> 100 µM	> 100 µM	> 100 µM	> 100 µM	1.7 µM	> 100 µM	> 100 µM	> 100 µM	> 100 µM	> 100 µM	> 100 µM	> 100 µM
COc1ccc(Nc2cc(C)nc(NCc3ccccc3)n2)cc1	3.45 µM	16.1 µM	3.62 µM	19.2 µM	5.31 µM	20.1 µM	2.6 µM	11.3 µM	5.28 µM	20.4 µM	8.84 µM	23.8 µM	6.67 µM	23.4 µM	2.84 µM	14.4 µM	2.2 µM	6.38 µM	2.92 µM	17.6 µM
O=C(NC(=O)c1ccccc1[N+](=O)[O-])Nc1ccc(Oc2ncc(Cl)cn2)c([N+](=O)[O-])c1		63.1 µM		1.68 µM		> 100 µM		> 100 µM		> 100 µM		> 69.3 µM		> 71.8 µM		> 100 µM		> 100 µM		3.15 µM
[Cl][Hg][c]1ccc(Cl)s1			0.114 µM	0.325 µM	1.72 µM	3.29 µM	0.908 µM	3.37 µM	2.95 µM	8.19 µM	13.6 µM	26.8 µM	1.62 µM	3.67 µM	1.57 µM	3.46 µM	1.53 µM	3.24 µM	3.31 µM	23.3 µM
O=C(O)C(C(=O)O)P(=S)(S)c1ccccc1 (configuration not stated)		> 100 µM		> 100 µM		> 100 µM		> 100 µM		> 100 µM		> 100 µM		> 100 µM		> 100 µM		> 100 µM		> 100 µM
O=c1c2ccccc2nc(/C=C(\O)c2ccncc2)n1-c1ccc(Cl)cc1				> 100 µM		> 100 µM				> 100 µM		> 100 µM				> 100 µM				
C=C1C(=O)O[C@H]2[C@H]1CC/C(C=Nc1c(N)cc(C(F)(F)F)cc1C(F)(F)F)=C\CC[C@@]1(C)O[C@@H]21	1.38 µM	3.79 µM	1.66 µM	4.13 µM	1.87 µM	4.59 µM	0.55 µM	2.64 µM			3.26 µM	11.5 µM			1.28 µM	2.99 µM	1.07 µM	2.3 µM	2 µM	5.75 µM
CCOC(=O)C(N=C(c1ccccc1)c1ccccc1)N(C(=O)OC(C)(C)C)C(=O)OC(C)(C)C (configuration not stated)				> 100 µM		> 100 µM				> 100 µM		> 100 µM		> 100 µM		> 100 µM				
N#Cc1c(N)n2c(nc1=Nc1ccc(Cl)cc1)sc1cc(Cl)ccc12	7.28 µM	71 µM	3.74 µM				> 100 µM	> 100 µM	33.5 µM	> 100 µM	7.14 µM and 5.3 µM	> 100 µM	> 100 µM	> 100 µM	2.85 µM	> 100 µM	13.5 µM	> 100 µM	4.69 µM	34.8 µM
O=C(NCc1cccnc1)C1COc2cc(-c3cc(=O)c4ccccc4o3)ccc2O1 (configuration not stated)				> 100 µM		> 100 µM				> 78 µM		> 100 µM		> 100 µM		> 100 µM		> 63.1 µM		
Cc1cc(C)n(-c2ccnc3cc(Cl)ccc23)n1						> 100 µM				> 100 µM		> 100 µM		> 100 µM		> 100 µM		> 100 µM		
N#C[Se]CCN1C(=O)C2C(C1=O)[C@H]1C=C[C@@H]2S1 (some centres not stated)	2.24 µM	5.2 µM			2.56 µM	6.4 µM	2.52 µM	7.78 µM	1.92 µM	4.07 µM	2.67 µM	5.59 µM	1.59 µM	3.48 µM	1.98 µM	4.27 µM	1.67 µM	4.12 µM	2.4 µM	7.18 µM
COC(=O)c1ccccc1N1C(=O)Cc2ccccc2C1=O						> 100 µM				> 100 µM		> 100 µM		> 100 µM		> 100 µM				
C/C(CC(=O)Nc1cc(C)ccc1C)=N/N=C(N)N				> 100 µM		> 100 µM						> 100 µM		> 100 µM		> 100 µM		> 100 µM		
COc1ccc2c(O)c(/C=C3\N=Nc4ccccc43)oc2c1C[C@@H]1CCNC[C@H]1F	2.42 µM	7.33 µM	1.67 µM	3.94 µM	10.5 µM	24 µM	18.5 µM	40.8 µM			17.2 µM	31.7 µM	10.9 µM	26.2 µM			1.6 µM	2.99 µM	10.5 µM	25.9 µM
COc1cc2c(c(OC)c1OC)-c1ccc(OC)c(=O)cc1[C@@H](NC(C)=O)CC2	7.13 µM	> 100 µM			> 578 µM	> 625 µM	> 100 µM	> 100 µM		> 100 µM and > 93.4 µM and 131 µM				> 100 µM		> 100 µM and > 77.4 µM and 91.7 µM		> 100 µM	0.488 µM	
CC1(Br)CC2OC3(Br)C=CC(C)(O)C2(CC1=O)C3(C)C (configuration not stated)				> 100 µM		> 100 µM				> 100 µM		> 100 µM		> 100 µM		> 100 µM		> 100 µM		
O=C1[C@@H]2C(c3ccccc3[N+](=O)[O-])=[N+](c3ccccc3)O[C@@H]2C(=O)N1c1ccc(Cc2ccc(N3C(=O)[C@H]4C(c5ccccc5[N+](=O)[O-])=[N+](c5ccccc5)O[C@H]4C3=O)cc2)cc1				> 100 µM		> 100 µM				> 100 µM		> 100 µM		> 100 µM		> 100 µM		> 100 µM		
O=C(c1ccccc1)C(c1ccccc1)C1(O)C(=O)Nc2ccc([N+](=O)[O-])cc21 (configuration not stated)				> 100 µM		> 100 µM				> 100 µM		79.7 µM		> 100 µM		> 100 µM		> 100 µM		
